This is an account of results in patent US6869957B1, “Non-peptide tachykinin receptor antagonists” (Eli Lilly and Company, priority 1993, dated 2005).

T1 sequence (P25103 whole entry): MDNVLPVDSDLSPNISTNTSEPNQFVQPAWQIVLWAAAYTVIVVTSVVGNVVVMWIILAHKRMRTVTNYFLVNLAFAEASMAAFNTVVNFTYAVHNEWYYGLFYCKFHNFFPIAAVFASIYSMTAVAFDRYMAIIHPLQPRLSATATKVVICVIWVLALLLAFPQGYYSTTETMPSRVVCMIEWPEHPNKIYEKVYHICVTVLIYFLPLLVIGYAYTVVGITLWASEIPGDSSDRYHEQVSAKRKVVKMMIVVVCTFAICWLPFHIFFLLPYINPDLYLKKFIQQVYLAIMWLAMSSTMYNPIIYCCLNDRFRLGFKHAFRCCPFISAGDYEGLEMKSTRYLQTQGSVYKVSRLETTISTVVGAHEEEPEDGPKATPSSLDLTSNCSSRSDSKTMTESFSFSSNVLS

One assay has as its target T1, NK-1 receptor (Homo sapiens, UniProt P25103).
T1 construct: endogenous in cells; host or cells: IM9 cells (human cell line), whole cells
Nature of the assay: NK-1 Receptor Binding Assay (125I-labeled substance P, IM9 cells). As to conditions: @ 1 μM. As to the method:
The biological activity of the compounds of the present invention was evaluated employing an initial screening assay which rapidly and accurately measured the binding of the tested compound to known NK-1 and NK-2 receptor sites. Assays useful for evaluating tachykinin receptor antagonists are well known in the art.
NK-1 Receptor Binding Assay
Radioreceptor binding assays were performed using a derivative of a previously published protocol.
The IM9 cell line is a well-characterized and readily available human cell line.
The reaction was terminated by filtration through a glass fiber filter harvesting system using filters previously soaked for 20 minutes in 0.1% polyethylenimine. Specific binding of labeled substance P was determined in the presence of 20 nM unlabeled ligand.
`COc1ccccc1CNCC(Cc1c[nH]c2ccccc12)NC(=O)CN1CCN(c2ccccc2)CC1` (centres unmarked) [Example 6]: the “NK-1 percent inhibition of binding” value is given as 62% @.

For the molecule `COc1ccccc1CN(C[C@H](Cc1c[nH]c2ccccc12)NC(=O)OCc1ccccc1)C(C)=O` [Example 93], the “NK-1 percent inhibition of binding” value is given as 16% @.

As to `COc1ccccc1CN(CC(C)(Cc1c[nH]c2ccccc12)NC(=O)CBr)C(=O)OC(C)(C)C` (centres unmarked) [Example 134], the “NK-1 percent inhibition of binding” value was found to be 14% @.

The assay is the same for the next values; noted with them: @ 1 μM; read-out: NK-1 percent inhibition of binding.
A word on the inhibition: it is the change of the read-out against control, counted positive when it falls. As for `NCC(Cc1c[nH]c2ccccc12)NC(=O)CN1CCN(c2ccccc2)CC1` (centres unmarked) [Example 150, 1-amino-3-(1H-indol-3-yl)-2-[N-(2-((4-phenyl)piperazin-1-yl)acetyl)amino]propane], the inhibition at 1 µM is 45%.

Staying with this assay, now noted: @ 5 μM.
For `NCC(NC(c1ccccc1)(c1ccccc1)c1ccccc1)c1ccc(Cl)c(Cl)c1` (centres unmarked) [Example 172], the “NK-1 percent inhibition of binding” value is reported as 46% @.

Staying with this assay, now noted: inhibits fifty percent of binding of 125I-substance P to IM9 cells.
What is called IC50 is the midpoint of a concentration-inhibition curve. A lower IC50 goes with greater potency. As for `O=C(CN1CCN(c2ccccc2)CC1)NC(CNCc1ccccc1Cl)Cc1c[nH]c2ccccc12` (centres unmarked) [Example 2, 1-[N-(2-chlorobenzyl)amino]-3-(1H-indol-3-yl)-2-[N-(2-((4-phenyl)piperazin-1-yl)acetyl)amino]propane], the IC50 was determined as 36 nM.

Consider `O=C(CN1CCN(c2ccccc2)CC1)NC(CNCc1ccccc1C(F)(F)F)Cc1c[nH]c2ccccc12` (centres unmarked) [Example 3], for which the IC50 is 29 nM.

`COc1ccccc1CNC[C@@H](Cc1c[nH]c2ccccc12)NC(=O)CN1CCN(c2ccccc2)CC1` [Example 5]: the IC50 was found to be 62 nM.

Take `COc1cccc(CNCC(Cc2c[nH]c3ccccc23)NC(=O)CN2CCN(c3ccccc3)CC2)c1` (centres unmarked) [Example 7]: the IC50 came out at 230 nM. Against the preceding molecule, the IC50 is about 3.7-fold higher.

As for `COc1ccc(CNCC(Cc2c[nH]c3ccccc23)NC(=O)CN2CCN(c3ccccc3)CC2)cc1` (centres unmarked) [Example 8], the IC50 is 130 nM. Against the preceding molecule, the IC50 is about 1.8-fold lower.

The molecule `CC(=O)N(Cc1ccccc1Cl)CC(Cc1c[nH]c2ccccc12)NC(=O)CN1CCN(c2ccccc2)CC1` (centres unmarked) [Example 13] yielded a half-maximal inhibitory concentration (IC50) of 1.3 nM.

`CC(=O)N(Cc1ccccc1C(F)(F)F)CC(Cc1c[nH]c2ccccc12)NC(=O)CN1CCN(c2ccccc2)CC1` (centres unmarked) [Example 15] had an IC50 of 2.1 nM.

For the molecule `CCCCN(CC(Cc1c[nH]c2ccccc12)NC(=O)CN1CCN(c2ccccc2)CC1)C(C)=O` (centres unmarked) [Example 39], the IC50 amounted to 139 nM.

`CC(=O)N(Cc1ccccc1Cl)CC(Cc1c[nH]c2ccccc12)NC(=O)CN1CCC(N2CCCCC2)CC1` (centres unmarked) [Example 48]: the IC50 amounted to 0.24 nM.

In the case of `CC(=O)N(Cc1ccccc1Cl)CC(Cc1c[nH]c2ccccc12)NC(=O)CN1CCC(N2CCCCC2)CC1` (centres unmarked) [Example 49], the IC50 came out at 135 nM.

`COc1ccccc1CN(CC(Cc1c[nH]c2ccccc12)NC(=O)CBr)C(C)=O` (centres unmarked) [Example 55] came in with an IC50 of 71 nM.

`COc1ccccc1CN(CC(Cc1c[nH]c2ccccc12)NC(=O)CSc1ccccc1)C(C)=O` (centres unmarked) [Example 57] had an IC50 of 150 nM.

For the molecule `COc1ccccc1CN(CC(Cc1c[nH]c2ccccc12)NC(=O)CN1CCN(C(C)C)CC1)C(C)=O` (centres unmarked) [Example 73], the IC50 stood at 0.99 nM. Compared with the last molecule, the IC50 is about 150-fold lower.

The molecule `CC(=O)N(Cc1ccccc1Cl)CC(Cc1c[nH]c2ccccc12)NC(=O)CN1CCN(C(C)C)CC1` (centres unmarked) [Example 86] yielded an IC50 of 0.36 nM.

In turn, `CC(=O)N(Cc1ccccc1Cl)CC(Cc1c[nH]c2ccccc12)NC(=O)CN1CCN(C2CCCCC2)CC1` (centres unmarked) [Example 87] returned an IC50 of 0.77 nM.

Molecule `COc1ccccc1CN(CC(Cc1c[nH]c2ccccc12)NC(=O)CCc1ccccc1)C(C)=O` (centres unmarked) [Example 90] gave an IC50 of 65 nM.

Regarding `COc1ccccc1CN(CC(Cc1c[nH]c2ccccc12)NC(=O)CCc1ccccc1)C(C)=O` (centres unmarked) [Example 91], the IC50 is 3000 nM.

With `COc1ccccc1CN(CC(Cc1c[nH]c2ccccc12)NC(=O)OCc1ccccc1)C(C)=O` (centres unmarked) [Example 92], the IC50 was 97.2 nM.

`COc1ccccc1CN(C[C@@H](Cc1c[nH]c2ccccc12)NC(=O)CCC(=O)c1ccccc1)C(C)=O` [Example 96] returned an IC50 of 34.4 nM.

Regarding `COc1ccccc1CN(C[C@H](Cc1c[nH]c2ccccc12)NC(=O)CCC(=O)c1ccccc1)C(C)=O` [Example 97], the IC50 is 1300 nM.

Turning to `COc1ccccc1CNCC(Cc1c[nH]c2ccc(OCc3ccccc3)cc12)NC(=O)CN1CCN(c2ccccc2)CC1` (centres unmarked) [Example 112], the IC50 was determined as 270 nM.

Consider `COc1ccccc1CN(CC(Cc1c[nH]c2c(C)cccc12)NC(=O)CN1CCN(c2ccccc2)CC1)C(C)=O` (centres unmarked) [Example 115], for which the IC50 came out at 15.4 nM. Against the preceding molecule, the IC50 is about 18-fold lower.

In turn, `COc1ccc2[nH]cc(CC(CN(Cc3ccccc3OC)C(C)=O)NC(=O)CN3CCN(c4ccccc4)CC3)c2c1` (centres unmarked) [Example 117] registered an IC50 of 33 nM.

For `COc1ccccc1CN(CC(Cc1c[nH]c2ccc(OCc3ccccc3)cc12)NC(=O)CN1CCN(c2ccccc2)CC1)C(C)=O` (centres unmarked) [Example 118], the IC50 worked out at 310 nM.

In turn, `COc1ccccc1CNCC(Cc1c[nH]c2ccc(Br)cc12)NC(=O)CN1CCC(N2CCCCC2)CC1` (centres unmarked) [Example 120] returned an IC50 of 2500 nM. This IC50 lies about 8.1-fold higher than the previous one.

As to `COc1ccc2[nH]cc(CC(CNCc3ccccc3OC)NC(=O)CN3CCC(N4CCCCC4)CC3)c2c1` (centres unmarked) [Example 121], the IC50 was found to be 850 nM.

`COc1ccccc1CNCC(Cc1c[nH]c2ccc(OCc3ccccc3)cc12)NC(=O)CN1CCC(N2CCCCC2)CC1` (centres unmarked) [Example 122] returned an IC50 of 550 nM. Against the preceding molecule, the IC50 is about 1.5-fold lower.

Regarding `COc1ccccc1CN(CC(Cc1c[nH]c2c(C)cccc12)NC(=O)CN1CCC(N2CCCCC2)CC1)C(C)=O` (centres unmarked) [Example 128], the IC50 was 1.1 nM.

`COc1ccccc1CN(CC(Cc1c[nH]c2ccc(Br)cc12)NC(=O)CN1CCC(N2CCCCC2)CC1)C(C)=O` (centres unmarked) [Example 129] had an IC50 of 8.5 nM.

`COc1ccc2[nH]cc(CC(CN(Cc3ccccc3OC)C(C)=O)NC(=O)CN3CCC(N4CCCCC4)CC3)c2c1` (centres unmarked) [Example 130] had an IC50 of 19 nM.

For the molecule `COc1ccccc1CN(CC(Cc1c[nH]c2ccc(OCc3ccccc3)cc12)NC(=O)CN1CCC(N2CCCCC2)CC1)C(C)=O` (centres unmarked) [Example 131], the IC50 was found to be 67 nM.

Molecule `COc1ccccc1CN(CC(Cc1c[nH]c2cc(F)ccc12)NC(=O)CN1CCC(N2CCCCC2)CC1)C(C)=O` (centres unmarked) [Example 131a] registered a half-inhibitory concentration (IC50) of 0.7 nM.

As for `COc1ccccc1CN(CC(C)(Cc1c[nH]c2ccccc12)NC(=O)CN1CCC(N2CCCCC2)CC1)C(C)=O` (centres unmarked) [Example 132], the IC50 stood at 4.2 nM.

Take `COc1ccccc1CN(CC(C)(Cc1c[nH]c2ccccc12)NC(=O)CN1CCN(c2ccccc2)CC1)C(C)=O` (centres unmarked) [Example 133]: the IC50 turned out to be 11.6 nM.

With `COc1ccccc1CN(CC(Cc1csc2ccccc12)NC(=O)CN1CCN(c2ccccc2)CC1)C(C)=O` (centres unmarked) [Example 143], the IC50 came to 7.9 nM.

Take `COc1ccccc1CN(CC(Cc1csc2ccccc12)NC(=O)CN1CCC(N2CCCCC2)CC1)C(C)=O` (centres unmarked) [Example 149]: the IC50 worked out at 1.2 nM. This IC50 lies about 6.6-fold lower than the previous one.
